Assay [1] has as its target 5-hydroxytryptamine receptor 4 (Rattus norvegicus, UniProt Q62758). Put plainly: Binding affinity towards 5-hydroxytryptamine 4 receptor was determined in rat striatal membranes using [3H]GR-113808 as radioligand. It is filed as cell membranes, Striatum, Membrane.
Assay [2] addresses 5-hydroxytryptamine receptor 4 (Cavia porcellus) (UniProt O70528). Put plainly: 5-hydroxytryptamine 4 receptor agonist activity is expressed as percent of the maximum 5-HT response. It is filed as functional.
In assay [3] the target is T1, Serotonin 3 (5-HT3) receptor (Rattus norvegicus, UniProt P35563+Q9JJ16).
T1 sequence (P35563 whole entry): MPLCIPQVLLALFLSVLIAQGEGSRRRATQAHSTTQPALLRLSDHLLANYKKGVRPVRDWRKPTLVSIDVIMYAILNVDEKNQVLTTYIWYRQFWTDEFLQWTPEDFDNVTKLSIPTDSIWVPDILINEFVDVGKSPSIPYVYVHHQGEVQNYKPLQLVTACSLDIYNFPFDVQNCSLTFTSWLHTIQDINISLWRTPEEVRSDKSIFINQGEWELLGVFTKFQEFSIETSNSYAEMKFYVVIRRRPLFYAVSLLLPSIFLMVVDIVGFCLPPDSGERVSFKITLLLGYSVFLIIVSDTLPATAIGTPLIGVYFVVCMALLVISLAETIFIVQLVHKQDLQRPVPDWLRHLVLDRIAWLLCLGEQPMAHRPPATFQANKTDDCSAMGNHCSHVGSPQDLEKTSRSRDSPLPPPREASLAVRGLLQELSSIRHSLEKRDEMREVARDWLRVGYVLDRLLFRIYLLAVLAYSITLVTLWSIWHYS
T1 sequence (Q9JJ16 whole entry): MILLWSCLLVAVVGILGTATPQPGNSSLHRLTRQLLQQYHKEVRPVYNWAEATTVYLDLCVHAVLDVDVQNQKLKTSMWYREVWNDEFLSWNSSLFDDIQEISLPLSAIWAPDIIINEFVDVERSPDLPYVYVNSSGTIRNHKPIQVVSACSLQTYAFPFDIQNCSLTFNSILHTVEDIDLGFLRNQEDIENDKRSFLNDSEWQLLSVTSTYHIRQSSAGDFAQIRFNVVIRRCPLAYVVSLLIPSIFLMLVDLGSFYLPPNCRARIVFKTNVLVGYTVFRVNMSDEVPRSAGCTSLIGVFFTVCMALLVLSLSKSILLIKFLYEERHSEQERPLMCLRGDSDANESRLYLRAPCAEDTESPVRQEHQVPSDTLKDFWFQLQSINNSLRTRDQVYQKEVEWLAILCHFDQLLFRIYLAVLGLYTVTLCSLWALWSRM
Briefly: Binding affinity was measured on 5-hydroxytryptamine 3 receptor using [3H]-BRL 43694 as radioligand in rat posterior cortex.

For assay [4], the target named is T1, Serotonin 3 (5-HT3) receptor. Put plainly: Binding affinity was measured on 5-hydroxytryptamine 3 receptor using [3H]-BRL 43694 as radioligand in rat posterior cortex.
Assay [5] addresses T2, 5-hydroxytryptamine receptor 4 (Cavia porcellus, UniProt O70528). Put plainly: 5-hydroxytryptamine 4 receptor agonist activity, concentration which gave 50% increase in the response to electrically-stimulated myenteric plexus and longitudinal muscle of the guinea pig ileum. It is filed as functional, tissue-based.
In assay [6] the target is T2, 5-hydroxytryptamine receptor 4. Put plainly: 5-hydroxytryptamine 4 receptor antagonist activity, concentration which gave 50% reduction of the 5-HT-induced contractions in the guinea pig ileum. It is filed as functional, tissue-based.
Assay [7] shares this target.
The target is the same in assay [8]. Briefly: 5-hydroxytryptamine 4 receptor antagonist activity, concentration which gave 50% reduction of the 5-HT-induced contractions in the guinea pig ileum; Inactive up to 10E-5 M. It counts as functional, tissue-based.

Each structure is given as a SMILES string.

Chain of 5-hydroxytryptamine receptor 4 (Rattus norvegicus, UniProt Q62758) (Q62758 whole entry): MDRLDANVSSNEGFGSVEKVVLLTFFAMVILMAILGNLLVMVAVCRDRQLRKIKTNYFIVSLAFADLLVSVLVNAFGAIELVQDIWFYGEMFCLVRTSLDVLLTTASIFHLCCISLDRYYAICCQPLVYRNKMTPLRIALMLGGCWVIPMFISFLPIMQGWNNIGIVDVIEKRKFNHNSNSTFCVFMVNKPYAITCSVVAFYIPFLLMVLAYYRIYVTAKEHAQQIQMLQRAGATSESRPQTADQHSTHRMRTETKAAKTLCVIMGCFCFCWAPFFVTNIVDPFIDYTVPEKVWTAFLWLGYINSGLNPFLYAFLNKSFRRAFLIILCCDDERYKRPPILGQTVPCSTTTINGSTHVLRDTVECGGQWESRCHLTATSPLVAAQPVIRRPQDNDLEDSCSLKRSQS
T2 sequence (O70528 whole entry): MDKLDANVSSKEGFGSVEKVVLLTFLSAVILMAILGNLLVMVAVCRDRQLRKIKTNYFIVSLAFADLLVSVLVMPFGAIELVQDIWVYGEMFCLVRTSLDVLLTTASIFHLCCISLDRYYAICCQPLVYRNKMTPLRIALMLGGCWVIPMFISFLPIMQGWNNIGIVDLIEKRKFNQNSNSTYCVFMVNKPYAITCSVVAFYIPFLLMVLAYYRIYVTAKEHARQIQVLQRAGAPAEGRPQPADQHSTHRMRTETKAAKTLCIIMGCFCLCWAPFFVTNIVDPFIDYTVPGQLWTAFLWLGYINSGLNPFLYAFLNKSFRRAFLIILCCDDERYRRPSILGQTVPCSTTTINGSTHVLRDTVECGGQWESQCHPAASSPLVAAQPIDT
Chain of 5-hydroxytryptamine receptor 4 (Cavia porcellus) (O70528 whole entry): as above

In general, Ki refers to the equilibrium dissociation constant of an inhibitor or competing ligand from its target. Low readings indicate a stronger hold on the target, high ones a looser hold on the target. For `COc1cc(N)c(Cl)cc1C(=O)NCCN(C)C`, the inhibitory constant (Ki) in assay [1] is over 1000 nM.
In assay [2], `COc1cc(N)c(Cl)cc1C(=O)OC1CC2CCC(C1)N2C` (centres undefined) displayed an Activity of 41%.
`COc1cc(N)c(Cl)cc1C(=O)OCCN1CCCCC1` had an inhibition constant (Ki) in assay [3] of 730 nM.
Consider `COc1cc(N)c(Cl)cc1C(=O)OCCN1CCCC(O)C1` (stereo in doubt; 7j) [listing 1 of 2 here], for which the Ki was over 1000 nM in assay [4] and 4.8 nM in assay [1]. In assay [5], this compound gave an EC50 of 5 nM.
In assay [2], `COc1cc(N)c(Cl)cc1C(=O)OCCN1CCC(NC(C)=O)CC1` came in with an Activity of 59%. The EC50 in assay [5] worked out at 13 nM. This compound also showed a Ki in assay [1] of 1.05 nM.
Taken in the same sequence, the figures for `COc1cc(N)c(Cl)cc1C(=O)OCCN1CC2CCC(CC2)C1` were 61%, 7.8 nM and 5.45 nM.
On to `COc1cc(N)c(Cl)cc1C(=O)OCCN1CC=CCC1`, for which the Activity in assay [2] is 65%. This compound also came in with an EC50 in assay [5] of 29 nM. The affinity in assay [1], expressed as Ki, was 9.1 nM.
Broadly, the IC50 is the concentration at which inhibition is half-maximal. `COc1cc(N)c(Cl)cc1C(=O)N(C)CCN1CCCCC1` showed a 50% inhibitory concentration (IC50) in assay [6] of over 1000 nM. The EC50 in assay [5] was over 1000 nM. For the same compound, the inhibitory constant (Ki) in assay [1] was over 1000 nM.
`COc1cc(N)c(Cl)cc1C(=O)OCCN1CCC(C(N)=O)CC1`: the Activity in assay [2] worked out at 65%. In assay [5], this compound had an EC50 of 19 nM. In assay [1], this compound showed a Ki of 1.43 nM.
Consider `COc1cc(N)c(Cl)cc1C(=O)NC1CC2CCC(C1)N2C` (centres undefined), for which affinity in assay [1] was put at a Ki of 48.6 nM. That is a double-digit nanomolar value.
For the compound `COc1cc(N)c(Cl)cc1C(=O)OCCN1CCCC(C)(C)C1`, in assay [6], the half-inhibitory concentration (IC50) amounted to 150 nM. This compound also returned an inhibitory constant (Ki) in assay [1] of 1.72 nM.
For `COc1cc(N)c(Cl)cc1C(=O)OCCN1CC(C)OC(C)C1` (centres undefined), the IC50 entry was “Not Active” in assay [7] and 300 nM in assay [6]. This compound returned an inhibition constant Ki in assay [1] of 6.28 nM.
As for `COc1cc(N)c(Cl)cc1C(=O)OCCN1CCC(O)CC1`, in assay [2], the Activity was found to be 72%. In assay [5], this compound came in with an EC50 of 14 nM. In assay [1], this compound registered a Ki of 1.42 nM.
The compound `COc1cc(N)c(Cl)cc1C(=O)OCCN1CCCC(O)C1` (stereo in doubt; 7k) [listing 1 of 2 here] gave an Activity in assay [2] of 62%.
With `COc1cc(N)c(Cl)cc1C(=O)OCCCN1CCCCC1`, the Activity in assay [2] is 52%. In assay [5], the EC50 turned out to be 30 nM. In assay [1], this compound registered an inhibition constant (Ki) of 28.1 nM.
For `COc1cc(N)c(Cl)cc1C(=O)OCCN1CCN(c2ccccc2)CC1`, in assay [6], the IC50 was found to be 100 nM.
As for `COc1cc(N)c(Cl)cc1C(=O)OCCN1CCCC(O)C1` (stereo in doubt; 7k) [listing 2 of 2 here], the EC50 in assay [5] came to 4 nM. In assay [1], this compound gave a Ki of 1 nM.
Turning to `COc1cc(N)c(Cl)cc1C(=O)OCCN1CCCCCC1`, in assay [2], the Activity was 59%. The EC50 in assay [5] was 4.4 nM. For the same compound, the Ki in assay [1] was found to be 0.92 nM.
`COc1cc(N)c(Cl)cc1C(=O)OCCN1CC(C)CC(C)C1` (stereo in doubt; 7h): the Ki in assay [3] is over 1000 nM; in assay [1] it was 2.32 nM. The compound also came in with a 50% inhibitory concentration (IC50) in assay [6] of 13 nM.
As to `COc1cc(N)c(Cl)cc1C(=O)OCCN1CCCCC1C` (centres undefined), in assay [2], the Activity was found to be 82%. This compound also showed an EC50 in assay [5] of 6 nM. In addition, the Ki in assay [1] worked out at 7.8 nM.
For the compound `COc1cc(N)c(Cl)cc1C(=O)OCCN1CCCC1`, the Activity in assay [2] was 50%. Further, the IC50 in assay [6] worked out at 200 nM. Moreover, in assay [5], the EC50 amounted to 40 nM. In assay [1], this compound returned an inhibitory constant (Ki) of 5.35 nM.
With `COc1cc(N)c(Cl)cc1C(=O)OCCN1CCOCC1`, the EC50 in assay [5] was 113 nM. In addition, the IC50 result in assay [8] is “Not Active”. Further, the inhibitory constant (Ki) in assay [1] was found to be 35.6 nM.
As for `COc1cc(N)c(Cl)cc1C(=O)OCCN1CC(C)CC(C)C1` (stereo in doubt; 7g), the inhibition constant Ki in assay [3] is over 1000 nM; in assay [1], 0.26 nM. In assay [6], this compound had an IC50 of 11 nM.
For the compound `COc1cc(N)c(Cl)cc1C(=O)OCCN1CCCC(O)C1` (stereo in doubt; 7j) [listing 2 of 2 here], in assay [2], the Activity amounted to 64%.
In assay [2], `COc1cc(N)c(Cl)cc1C(=O)OCCN(C)C` returned an Activity of 60%. In assay [6], the IC50 came out at 600 nM. The EC50 in assay [5] is 180 nM. Besides, the affinity in assay [1], expressed as Ki, was 47 nM.
As to `COc1cc(N)c(Cl)cc1C(=O)OCC[N+]12CCC(CC1)CC2`, the Activity in assay [2] was 78%. The compound further had an IC50 in assay [6] of about 20 nM. The EC50 in assay [5] is 5.3 nM. Moreover, in assay [1], the inhibitory constant (Ki) was 6.03 nM.
In assay [5], `COc1cc(N)c(Cl)cc1C(=O)OCCN1CCCC(O)C1` (stereo in doubt; 7l) [listing 1 of 2 here] registered an EC50 of 10 nM. In assay [1], this compound showed an inhibitory constant (Ki) of 2 nM.
For `NCCc1c[nH]c2ccc(O)cc12` [SEROTONIN], in assay [7], the half-inhibitory concentration (IC50) entry is reported as “Not Active”.
Consider `COc1cc(N)c(Cl)cc1C(=O)OCCN1C(C)CCCC1C` (centres undefined), for which the Ki in assay [1] turned out to be 39.5 nM. This lies in the double-digit nanomolar range.
Regarding `COc1cc(N)c(Cl)cc1C(=O)OCCN1C2CCCC1CC2`, the Activity in assay [2] was determined as 63%. This compound also had an EC50 in assay [5] of 40 nM. For the same compound, the inhibition constant (Ki) in assay [1] stood at 9.3 nM.
With `Cn1cc(C(=O)OCC2CCN(CCNS(C)(=O)=O)CC2)c2ccccc21`, the IC50 in assay [6] was 13 nM. In assay [1], this compound came in with an inhibitory constant (Ki) of 0.15 nM.
On to `COc1cc(N)c(Cl)cc1C(=O)OCCN1CCC(C)CC1`, for which the Activity in assay [2] came out at 57%. This compound showed an EC50 in assay [5] of 3 nM. In assay [1], this compound gave a Ki of 4.08 nM.
In the case of `COc1cc(N)c(Cl)cc1C(=O)OCC[n+]1ccccc1`, in assay [5], the EC50 came to 17 nM. The same compound showed a Ki in assay [1] of 6.2 nM.
As to `COc1cc(N)c(Cl)cc1C(=O)NCCN1CCCCC1`, the IC50 in assay [6] is over 1000 nM. Besides, the EC50 in assay [5] is over 1000 nM. The compound also showed an inhibition constant (Ki) in assay [1] of 135 nM.
In the case of `CC(C)n1c(=O)n(C(=O)NC2CC3CCC(C2)N3C)c2ccccc21` (centres undefined), the IC50 result in assay [7] is listed as “Not Active”. Moreover, the EC50 in assay [5] stood at 43 nM. Moreover, in assay [1], the inhibitory constant (Ki) came out at 257 nM.
As for `CCN(CC)CCOC(=O)c1cc(Cl)c(N)cc1OC`, the Ki in assay [1] was determined as 5.5 nM.
Regarding `COc1cc(N)c(Cl)cc1C(=O)N[C@H]1CN2CCC1CC2` [(R)ZACOPRIDE], in assay [2], the Activity was determined as 84%. The EC50 in assay [5] stood at 166 nM. For the same compound, the inhibition constant (Ki) in assay [1] came out at 1510 nM.
`COc1cc(N)c(Cl)cc1C(=O)NCCN1CC(C)CC(C)C1` (centres undefined) gave an Activity in assay [2] of 80%. The compound also displayed an EC50 in assay [5] of about 930 nM. Also, in assay [1], the Ki came out at 103 nM.
`COc1cc(N)c(Cl)cc1C(=O)N[C@@H]1CN2CCC1CC2`: in assay [2], the Activity worked out at 100%. The compound further registered an EC50 in assay [5] of 77 nM.
As to `COc1cc(N)c(Cl)cc1C(=O)OCCN1CCCC(O)C1` (stereo in doubt; 7l) [listing 2 of 2 here], the Activity in assay [2] was determined as 61%.
The compound `COc1cc(N)c(Cl)cc1C(=O)OCCN1CCCC(C)C1` (centres undefined) gave an Activity in assay [2] of 54%. The results for the Ki in assay [3] and in assay [1] were over 1000 nM and 0.93 nM, respectively. In addition, the EC50 in assay [5] amounted to 15 nM.

(Values after ChEMBL document CHEMBL1129946, “New esters of 4-amino-5-chloro-2-methoxybenzoic acid as potent agonists and antagonists for 5-HT4 receptors” (J Med Chem, 1997).)
